# Test results taken from ChEMBL document CHEMBL1201862, “PubChem BioAssay data set” (2004).
#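 These data come from cells grown in 96-well plates and exposed to compound for 48 hours at five concentrations. GI50 is the concentration that inhibits growth by half.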 Calls of active or inactive are those of the source. Rule as the data show it: active = GI50 up to about 1.1 µM and inactive = higher.
# Tests used:
# Assay in all cases: growth of human tumour cells (NCI), 48 h
# CAKI-1 = tested on: CAKI-1
# COLO 205 = tested on: COLO 205
# HCT-116 = tested on: HCT-116
# HCT-15 = tested on: HCT-15
# LOX IMVI = tested on: LOX IMVI
# MCF7 = tested on: MCF7
# MDA-N = tested on: MDA-N
# NCI-H226 = tested on: NCI-H226
# NCI-H23 = tested on: NCI-H23
# NCI-H460 = tested on: NCI-H460
# NCI/ADR-RES = tested on: NCI/ADR-RES
# OVCAR-5 = tested on: OVCAR-5
# OVCAR-8 = tested on: OVCAR-8
# RPMI-8226 = tested on: RPMI-8226
# SF-268 = tested on: SF-268
# SK-MEL-2 = tested on: SK-MEL-2
# SK-MEL-5 = tested on: SK-MEL-5
# SK-OV-3 = tested on: SK-OV-3
# SW-620 = tested on: SW-620
# CCRF-CEM = tested on: CCRF-CEM
Structure (SMILES),GI50 (CAKI-1),GI50 (COLO 205),GI50 (HCT-116),GI50 (HCT-15) [µM],GI50 (LOX IMVI),GI50 (MCF7),GI50 (MDA-N),GI50 (NCI-H226),GI50 (NCI-H23),GI50 (NCI-H460),GI50 (NCI/ADR-RES),GI50 (OVCAR-5),GI50 (OVCAR-8),GI50 (RPMI-8226),GI50 (SF-268),GI50 (SK-MEL-2),GI50 (SK-MEL-5),GI50 (SK-OV-3),GI50 (SW-620),GI50 (CCRF-CEM)
CCCCCC(CO)C(O)(C(F)(F)F)C(F)(F)F (stereo not given),> 10 µM (inactive),> 10 µM (inactive),> 10 µM (inactive),> 10,> 10 µM (inactive),> 10 µM (inactive),> 10 µM (inactive),> 10 µM (inactive),> 10 µM (inactive),> 10 µM (inactive),> 10 µM (inactive),> 10 µM (inactive),> 10 µM (inactive),> 10 µM (inactive),> 10 µM (inactive),> 10 µM (inactive),> 10 µM (inactive),> 10 µM (inactive),> 10 µM (inactive),
COc1ccc(C2SC(=N)Nc3c2c(C)nn3C(=O)c2ccc(Cl)cc2)cc1 (stereo not given),> 10 µM (inactive),> 10 µM (inactive),> 10 µM (inactive),> 10,> 10 µM (inactive),> 10 µM (inactive),> 10 µM (inactive),> 10 µM (inactive),> 10 µM (inactive),> 10 µM (inactive),> 10 µM (inactive),> 10 µM (inactive),> 10 µM (inactive),> 10 µM (inactive),> 10 µM (inactive),> 10 µM (inactive),> 10 µM (inactive),> 10 µM (inactive),> 10 µM (inactive),> 10 µM (inactive)
CCc1ccc2c(c1)/C(=C1/Nc3ccccc3C1=O)C(=O)N2,17.2 µM (inactive),14.5 µM (inactive),7.43 µM (inactive),31.7,50.7 µM (inactive),1.78 µM (inactive),34.5 µM (inactive),18.7 µM (inactive),29.6 µM (inactive),23.3 µM (inactive),28.7 µM (inactive),44.9 µM (inactive),7.46 µM (inactive),> 100 µM (inactive),19.6 µM (inactive),17.1 µM (inactive),9.62 µM (inactive),10.3 µM (inactive),63.2 µM (inactive),36.1 µM (inactive)
O=C1c2ccccc2/C=C\C(c2ccccc2)=N/N1c1ccccc1Cl,16.9 µM (inactive),> 10 µM (inactive),28.1 µM (inactive),29.5,25.1 µM (inactive),21.5 µM (inactive),3.44 µM (inactive),46.8 µM (inactive),28.8 µM (inactive),28.6 µM (inactive),15.9 µM (inactive),72.3 µM (inactive),27.4 µM (inactive),23.7 µM (inactive),54.2 µM (inactive),60 µM (inactive),13.4 µM (inactive),,20.1 µM (inactive),34.5 µM (inactive)
COc1ccc(OC)c(NC(=O)C(=O)Nn2c(S)nc3ccccc3c2=O)c1,> 100 µM (inactive),,> 100 µM (inactive),> 100,> 100 µM (inactive),> 100 µM (inactive),> 100 µM (inactive),> 100 µM (inactive),> 100 µM (inactive),> 100 µM (inactive),> 100 µM (inactive),> 100 µM (inactive),> 100 µM (inactive),> 100 µM (inactive),> 100 µM (inactive),> 100 µM (inactive),> 100 µM (inactive),> 100 µM (inactive),> 100 µM (inactive),> 100 µM (inactive)
c1ccc(-c2sc(-c3cccs3)cc2Cc2cccs2)cc1,> 10 µM (inactive),> 10 µM (inactive),> 10 µM (inactive),> 10,> 10 µM (inactive),> 10 µM (inactive),> 10 µM (inactive),> 10 µM (inactive),> 10 µM (inactive),> 10 µM (inactive),> 10 µM (inactive),,> 10 µM (inactive),> 10 µM (inactive),> 10 µM (inactive),,> 10 µM (inactive),> 10 µM (inactive),> 10 µM (inactive),> 10 µM (inactive)
COc1ccc2c(c1)CN1C(=N2)CSC1c1c(Cl)cccc1[N+](=O)[O-] (stereo not given),23.1 µM (inactive),11.4 µM (inactive),15.6 µM (inactive),16.6,18.5 µM (inactive),14.4 µM (inactive),18.5 µM (inactive),11.9 µM (inactive),15.8 µM (inactive),14.7 µM (inactive),15.1 µM (inactive),26.4 µM (inactive),30.1 µM (inactive),15.4 µM (inactive),20 µM (inactive),17.5 µM (inactive),12.8 µM (inactive),39.7 µM (inactive),15.6 µM (inactive),
Cc1ccc(S(=O)(=O)NN=C2C(C)CC(C(C)(C)C)CC2C)cc1 (stereo not given),16.9 µM (inactive),18.4 µM (inactive),17.5 µM (inactive),18.2,17.9 µM (inactive),21.1 µM (inactive),19.3 µM (inactive),19 µM (inactive),24.4 µM (inactive),18.8 µM (inactive),31.6 µM (inactive),17.5 µM (inactive),24.1 µM (inactive),23.2 µM (inactive),,16.2 µM (inactive),17.3 µM (inactive),24.4 µM (inactive),20 µM (inactive),20 µM (inactive)
O=C(O)C1=C(C(=O)O)N(c2ccncc2)C(c2ccco2)=CC1c1ccccc1[N+](=O)[O-] (stereo not given),15.5 µM (inactive),14.2 µM (inactive),1.83 µM (inactive),1.81,2.01 µM (inactive),2.65 µM (inactive),5.56 µM (inactive),9.59 µM (inactive),12.4 µM (inactive),12.6 µM (inactive),22.6 µM (inactive),15 µM (inactive),16.7 µM (inactive),2.79 µM (inactive),13.1 µM (inactive),17.8 µM (inactive),5.82 µM (inactive),18 µM (inactive),8.85 µM (inactive),2.69 µM (inactive)
CC(O)(C(=O)N(O)c1ccc(Cl)cc1)c1ccc(Cl)cc1 (stereo not given),23.9 µM (inactive),18.1 µM (inactive),28.4 µM (inactive),19.2,24.4 µM (inactive),35.4 µM (inactive),41.1 µM (inactive),40.6 µM (inactive),23.4 µM (inactive),34.2 µM (inactive),25.6 µM (inactive),37.9 µM (inactive),27.2 µM (inactive),11.2 µM (inactive),23.7 µM (inactive),22.2 µM (inactive),18.7 µM (inactive),33.1 µM (inactive),31.3 µM (inactive),6.08 µM (inactive)
O=[N+]([O-])C(=C(N1CCOCC1)N1CCOCC1)/C(Cl)=C(\Cl)[N+](=O)[O-],1.64 µM (inactive),3.18 µM (inactive),2 µM (inactive),2.7,2.15 µM (inactive),2.67 µM (inactive),9.75 µM (inactive),47 µM (inactive),3.33 µM (inactive),25.2 µM (inactive),21.4 µM (inactive),14.6 µM (inactive),,2.31 µM (inactive),10.6 µM (inactive),15.8 µM (inactive),1.66 µM (inactive),52.7 µM (inactive),2.23 µM (inactive),2.65 µM (inactive)
O=C(NC/C(Cl)=C/Cl)Nc1c2ccccc2nc2ccccc12,> 100 µM (inactive),29 µM (inactive),24.3 µM (inactive),59,61.2 µM (inactive),> 100 µM (inactive),> 100 µM (inactive),31.8 µM (inactive),> 100 µM (inactive),60.3 µM (inactive),52 µM (inactive),99.3 µM (inactive),56.4 µM (inactive),53.3 µM (inactive),> 100 µM (inactive),> 100 µM (inactive),57.9 µM (inactive),> 100 µM (inactive),> 100 µM (inactive),
CC(=O)OCC(OC(C)=O)C1C[C@H]2O[C@@H]3[C@H](C[C@H]2O1)O[C@@]1(C[C@@H]3C)C[C@H](C)[C@@H]2O[C@]3(C[C@@H]2O1)C[C@H]1O[C@H]2[C@H](C)[C@H]4OC(=O)C[C@H]5CC[C@@H]6OC7[C@H]8O[C@]9(CC[C@H]%10CC(=O)[C@H](CC[C@H]%11C[C@@H](C)C(=O)C(C[C@@H]4O[C@H]2C[C@H]1O3)O%11)O%10)CC8O[C@@H]7[C@@H](O9)[C@H]6O5 (stereo not given in full),0.00515 µM (active),0.00281 µM (active),0.00234 µM (active),0.00635,0.00486 µM (active),0.00151 µM (active),0.000321 µM (active),0.00703 µM (active),0.00267 µM (active),0.00315 µM (active),0.102 µM (active),,0.00964 µM (active),0.00229 µM (active),0.00509 µM (active),0.0481 µM (active),0.000458 µM (active),0.00728 µM (active),0.00438 µM (active),0.00436 µM (active)
O=C(NC(c1ccccc1)C(O)C(=O)OCc1ccc2c(c1)C(=O)c1ccccc1C2=O)c1ccccc1 (stereo not given),8.65 µM (inactive),48.4 µM (inactive),3.94 µM (inactive),> 95.3,13.2 µM (inactive),17.7 µM (inactive),30.5 µM (inactive),4.61 µM (inactive),12 µM (inactive),14.9 µM (inactive),4.35 µM (inactive),58.7 µM (inactive),4.25 µM (inactive),35.8 µM (inactive),17.1 µM (inactive),18.1 µM (inactive),13.6 µM (inactive),5.18 µM (inactive),63.5 µM (inactive),77.3 µM (inactive)
